# Assay results as given in patent US8338482B2, “Modulating notch1 signaling pathway for treating neuroendocrine tumors” (Wisconsin Alumni Research Foundation, priority 2007, dated 2012).
# Experiments:
# [1] = tested on: BON human GI carcinoid cancer cells; experiment: MTT cell proliferation assay, GI carcinoid cells; format: cell-based
# Description: (§1) Cell Culture BON human GI carcinoid cancer cells, kindly provided by Drs. B. Mark Evers and Courtney M. Townsend, Jr. (University of Texas Medical Branch, Galveston, Tex., USA), and H727 human lung carcinoid cancer cells (American Type Tissue Collection, Manassas, Va., USA) were maintained as previously described (Sippel, R S et al., Raf-1 Activation Suppresses neuroendocrine marker and hormone levels in human gastrointestinal carcinoid cells. Am J Physiol Gastrointest Liver Physiol. 2003 August; 285(2):G245-54, Van Gompel J J et al., ZM336372, A Raf-1 Activator, Suppresses Growth and Neuroendocrine Hormone Levels in Carcinoid Tumor Cells. Mol Cancer Ther. 2005 June; 4(6):910-7)
# (§2) Cell Proliferation Assay Carcinoid cancer cell proliferation was measured by the MTT (thiazolyl blue tetrazolium bromide; Sigma-Aldrich, St. Louis, Mo., USA) rapid calorimetric assay as previously described (Van Gompel J J et al., ZM336372, A Raf-1 Activator, Suppresses Growth and Neuroendocrine Hormone Levels in Carcinoid Tumor Cells. Mol Cancer Ther. 2005 June; 4(6):910-7). Briefly, cells were seeded in quadruplicate on 24-well plates and incubated for 24 hours to allow cell attachment. The cells were then treated with SBHA (Sigma-Aldrich) in concentrations of 0 to 50 μM and incubated for up to 6 days. The MTT assay was performed by replacing the standard medium with 250 μL of serum-free medium containing MTT (0.5 mg/mL) and incubated at 37° C. for 3 hours. After incubation, 750 μL of dimethyl sulfoxide (Sigma-Aldrich) was added to each well and mixed thoroughly. The plates were then measured at 540 nm using a spectrophotometer (μQuant; Bio-Tek Instruments, Winooski, Vt., USA).
# Cell Culture BON human gastrointestinal (GI) carcinoid tumor cells, kindly provided by Drs. B. Mark Evers and Courtney M. Townsend, Jr. […]
# (§3) Cell Proliferation Assay Carcinoid tumor cell proliferation was measured by the MTT (methylthiazolyldiphenyl-tetrazolium bromide; Sigma-Aldrich, St. Louis, Mo.) rapid colorimetric assay as previously described (Van Gompel J J et al., ZM336372, A Raf-1 Activator, Suppresses Growth and Neuroendocrine Hormone Levels in Carcinoid Tumor Cells. Mol Cancer Ther 2005; 4:910-917). […] The plates were then measured at 540 nm using a spectrophotometer (μQuant; Bio-Tek Instruments, Winooski, Vt.).
# [2] = tested on: BON cells; experiment: Subcutaneous GI carcinoid xenograft study; format: in vivo, mice; settings: 366 mg/kg daily i.p., 20 days
# Experimental: Xenograft Studies BON cells (1×10^6) were suspended in Hanks' balanced salt solution (Invitrogen) and injected subcutaneously into the right flank of 12 male nude athymic NU/NU mice (Charles River Laboratories, Wilmington, Mass.) under anesthesia. After palpable tumors developed, the mice were divided into 2 groups of 6 animals. The control group received daily intraperitoneal (i.p.) injections of saline while the treatment group received daily i.p. injections of VPA (366 mg/kg) for 20 days. The length and width of tumors were measured with a vernier caliper every 4 days and tumor volumes were calculated using the formula, volume=width^2×length×0.52. At the end of the experiment the mice were sacrificed and the tumors were resected and frozen in liquid nitrogen. Whole tumor cell protein lysates were prepared for immunoblotting as previously described (Vaccaro A et al., In-vivo activation of Raf-1 inhibits tumor growth and development in a xenograft model of human medullary thyroid cancer. Anticancer Drugs 2006; 17:849-853). This experiment was performed in accordance with the protocols of the University of Wisconsin Medical School Animal Care and Use Committee.
# [3] = human patients treated for epilepsy; cited from earlier work
# [4] = tested on: H727 human lung carcinoid cancer cells; experiment: MTT cell proliferation assay, pulmonary carcinoid cells; format: cell-based; settings: VPA 0 to 4 mM, up to 6 days
# Description: as §1
# as §2, with “After incubation, 750 μL of dimethyl sulfoxide (Sigma-Aldrich) was added to each well and mixed thoroughly.” left out, “USA). […]” for “USA).”
# as §3
# [5] = tested on: ASCL1 promoter; experiment: ASCL1 promoter luciferase reporter assay; format: cell-based, human; settings: GI carcinoid cells, VPA 48 hours
# [6] = tested on: neuroblastoma (NB) cells; settings: cited from earlier work
# [7] = Serum VPA level in xenograft mice; format: in vivo; settings: nude athymic NU/NU, mouse, ip, two hours after i.p. injection, last day, 366 mg/kg, read-out: median serum VPA level
# Experimental: After confirming that VPA activates Notch1 signaling and suppresses carcinoid cell growth in vitro, we were interested in testing its efficacy in vivo. Subcutaneous human GI carcinoid tumors were developed in immunocompromised mice, which were then given daily intraperitoneal injections of VPA, and the tumors were measured every 4 days for 20 days. The tumors of the saline-treated control mice grew at a higher rate than did those of the VPA-treated animals (FIG. 28A). Indeed, the growth of the tumors in the treatment group was almost static. On the last day of the experiment, blood was drawn from each animal in the treatment group two hours after intraperitoneal injection of VPA.
structure (smiles),measurement,setting,value
"CCCC(CCC)C(=O)O [VPA, 2-propylpentanoic acid]",inhibition at 1000 µM,"[1]; Homo sapiens, 144 h, 1 mM, 6 days of treatment, read-out: growth inhibition relative to untreated cells",50%
same,cell growth,"[1]; VPA 0 to 4 mM, up to 6 days",profound dose-dependent inhibition of growth
same,growth of the tumors,[2],almost static
same,neurotoxicity,[2],no signs of neurotoxicity
same,expression of ASCL1 in resected tumors,[2]; Western blot,decreased expression
same,therapeutic range,[3],50 to 125 µg/mL
same,cell growth,[4],Statistically significant growth inhibition
same,decrease in ASCL1 promoter luciferase activity,[5],~4 fold
same,cell death,[6],increased cell death
same,levels of intracellular Notch-1 and Hes-1,[6],increased levels
same,concentration at 2 h,[7],46000 ng/mL
